Experimental data taken from ChEMBL document CHEMBL1141329, “Cyclic peptides from an endophytic fungus obtained from a mangrove leaf (Kandelia candel)” (J Nat Prod, 2007).
In brackets after ≈: the same amount, converted by molar mass.

System: MCF7
Test: Antitumor activity against human MCF7 cells by MTT assay
Type: functional, cell-based

CC(C)C[C@@H]1OC(=O)CNC(=O)[C@H](C(C)C)NC(=O)[C@H](Cc2ccc(O)cc2)NC(=O)CNC(=O)[C@@H](CC(C)C)NC1=O
IC50: 100 µg/mL (≈ 166 µM)
